Assay results reported in patent publication US20190062428A1, “COMBINATION OF ANTI-CD47 ANTIBODIES AND CELL DEATH-INDUCING AGENTS, AND USES THEREOF” (Surface Oncology, Inc., priority 2017, published 2019).

Tested on: Ri-1 tumors
Assay: Ri-1 human B cell lymphoma (DLBCL) subcutaneous xenograft, tumor volume
Type: in vivo, CB.17 SCID mice
Conditions: FIG. 4
Protocol: The Ri-1 cell line is a human B cell lymphoma line that represents the ABC-subtype of diffuse large cell B cell lymphoma (DLBCL) and harbors a BCL-2 amplification. ABT-199, also known as Venclexta™ or Venetoclax, is an oral BCL-2 inhibitor, and was used as the cell death-inducing agent.
Briefly, 1×10^7 Ri-1 cells were injected subcutaneously into the right flank of CB.17 SCID mice in a 1:1 mixture of RPMI and Matrigel. Tumors were allowed to grow until they were 200-300 mm^3.

CC1(C)CCC(CN2CCN(c3ccc(C(=O)NS(=O)(=O)c4ccc(NCC5CCOCC5)c([N+](=O)[O-])c4)c(Oc4cnc5[nH]ccc5c4)c3)CC2)=C(c2ccc(Cl)cc2)C1 [ABT-199, reference compound]
single-agent anti-tumor activity (2.3D11 100 μg/mouse days 0, 3, 7, ABT-199 25 mg/kg days 0-4): potent single-agent anti-tumor activity | tumor re-growth (single agents as above, combination: 2.3D11 100 μg/mouse day 0, then oral ABT-199 25 mg/kg days 3, 4, 5): tumors re-grew
